According to PubChem BioAssay (NCI):
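In this assay, cells in 96-well plates receive the compound at five concentrations for 48 hours. Endpoints are linearly interpolated between the surrounding concentrations. Abbreviation: GI50, concentration required for 50% inhibition of growth. TGI denotes the concentration required for complete inhibition of growth.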

How the values were obtained:
Assay in all cases: growth of human tumour cells (NCI), 48 h
SF-295 CNS = test system: SF-295 CNS
LXFL 529 NSCLC = test system: LXFL 529 NSCLC
DMS 114 small cell lung = test system: DMS 114 small cell lung
HOP-18 NSCLC = test system: HOP-18 NSCLC
NCI-H522 lung = test system: NCI-H522 lung
KM20L2 colon = test system: KM20L2 colon
HOP-92 NSCLC = test system: HOP-92 NSCLC
SR leukemia = test system: SR leukemia

Compound | TGI (SF-295 CNS) | TGI (LXFL 529 NSCLC) | TGI (DMS 114 small cell lung) | TGI (HOP-18 NSCLC) | TGI (NCI-H522 lung) | TGI (KM20L2 colon) | TGI (HOP-92 NSCLC) | TGI (SR leukemia) | GI50 (LXFL 529 NSCLC) | GI50 (HOP-18 NSCLC) | GI50 (NCI-H522 lung) | GI50 (KM20L2 colon)
CC(C)/C=C1\CCC(CN(C)C)C1=O (stereo not given) | 31.2 µM | 2.85 µM | 10.3 µM | 8.72 µM | 0.22 µM | 28.6 µM | 3.47 µM | 4.53 µM | – | – | – | –
N#CCCn1[nH]c(=O)c(Cl)c(Cl)c1=O | 32.1 µM | 30.6 µM | 36.5 µM | 30.6 µM | 41.3 µM | 29.7 µM | 16.6 µM | 35.5 µM | – | – | – | –
O=[N+]([O-])c1ccc(C2=Nc3ccccc3S(=O)C(c3ccccc3)C2)cc1 (stereo not given) | > 100 µM | 26.7 µM | 42.8 µM | > 100 µM | 35.3 µM | 57.8 µM | – | – | – | – | – | –
CCOC(=O)c1c2ccc(/C=C/c3ccccn3)ccc-2c(C(=O)OCC)c1N | > 100 µM | > 100 µM | > 100 µM | > 100 µM | > 100 µM | > 100 µM | > 100 µM | – | – | – | – | –
CCCCCCCC/C=C1\CCC(CN(C)C)C1=O (stereo not given) | 18 µM | 3.01 µM | 13.6 µM | 33.8 µM | 13.3 µM | 19.8 µM | 8.02 µM | 13.1 µM | – | – | – | –
Nc1nc2c(N)cc(C(F)(F)F)cc2nc1-c1ccccc1 | > 100 µM | > 100 µM | > 100 µM | > 100 µM | > 100 µM | > 100 µM | > 100 µM | > 100 µM | – | – | – | –
CC(C)N(C(=O)C12C3C4C1C1C2C3C41C#N)C(C)C (stereo not given) | > 100 µM | > 100 µM | > 100 µM | > 100 µM | > 100 µM | > 100 µM | > 100 µM | 45 µM | – | – | – | –
CC(C)(C)N=CN1C=Cc2nc3ccccc3cc2C1 | > 100 µM | > 100 µM | > 100 µM | > 100 µM | > 100 µM | > 100 µM | > 100 µM | > 100 µM | – | – | – | –
COC(=O)C(=O)C(C(=O)OC)C(=O)C(=O)Nc1c(C)cccc1C (stereo not given) | > 100 µM | > 100 µM | > 100 µM | > 100 µM | > 100 µM | > 100 µM | > 100 µM | > 100 µM | – | – | – | –
CC(C)c1cccc(C(C)C)c1NC(=O)C(=O)Cc1nc2ccc([N+](=O)[O-])cc2[nH]c1=O | > 100 µM | > 100 µM | > 100 µM | > 100 µM | 54.4 µM | > 100 µM | > 100 µM | – | – | – | – | –
CC(C)(C)c1cc(CCC(=O)Nc2ccc(Cl)cc2)[nH]c(=S)n1 | > 100 µM | > 100 µM | > 100 µM | > 100 µM | > 100 µM | > 100 µM | – | – | – | – | – | –
Cc1ccc(C(=O)CC2(O)C(=O)Nc3c(C)cc(Cl)cc32)cc1 (stereo not given) | > 100 µM | > 100 µM | > 100 µM | > 100 µM | > 100 µM | > 100 µM | > 100 µM | – | – | – | – | –
O=C(Cc1ccccc1)NN1C(=O)C(Cl)C1c1ccccc1Cl (stereo not given) | > 100 µM | > 100 µM | > 88.4 µM | > 100 µM | 28 µM | > 100 µM | > 100 µM | 64.4 µM | – | – | – | –
COc1ccc(N2C(=O)c3c(c4[nH]c5ccccc5c4c4ccc(C(C)(C)C)cc34)C2=O)cc1 | 92.9 µM | > 100 µM | > 100 µM | > 100 µM | > 100 µM | > 100 µM | 64.2 µM | 57.2 µM | – | – | – | –
CC1=CC2C(C=C1)S(=O)(=O)N1CC21c1ccccc1 (stereo not given) | > 100 µM | > 100 µM | > 100 µM | > 100 µM | > 100 µM | > 100 µM | > 100 µM | > 100 µM | – | – | – | –
O=C1[C@@H]2C(c3ccc(Br)cc3)=NO[C@@H]2C(=O)N1c1ccc(Cc2ccc(N3C(=O)[C@H]4C(c5ccc(Br)cc5)=NO[C@H]4C3=O)cc2)cc1 | > 3.48 µM | > 40 µM | > 3.48 µM | > 40 µM | > 40 µM | > 40 µM | > 40 µM | > 40 µM | > 40 µM | > 40 µM | > 40 µM | > 40 µM
N#CC(NNC(=O)Cc1ccccc1)c1cccc(O)c1 (stereo not given) | > 100 µM | > 100 µM | > 100 µM | > 100 µM | > 100 µM | – | > 100 µM | > 100 µM | – | – | – | –
COc1ccc2[nH]c3c(c2c1)[C@H](c1ccccc1)C[C@@H]1C(=O)N(c2ccccc2)C(=O)[C@H]31 | > 100 µM | > 100 µM | 92.7 µM | 6.5 µM | > 100 µM | > 100 µM | 76.3 µM | 76.4 µM | – | – | – | –
